Literature values as cited in US11655474B2, “Suppression of pathological angiogenesis by inhibition of NR2F6” (Regen Biopharma, Inc., priority 2019, dated 2023).

Experiments:
human microvascular ECs = human microvascular ECs cultured in tumor-conditioned medium
[1] = subset that received paclitaxel with the antibody

COc1cc2nccc(Oc3ccc(NC(=O)Nc4ccc(F)cc4F)c(F)c3)c2cc1OC [Ki8751]
tumor CM-induced MDR1 up-regulation (human microvascular ECs): blocked

bevacizumab: antibody which binds VEGF
HR, overall survival (ovarian cancer patients; bevacizumab plus chemotherapy compared with chemotherapy alone, 95 percent CI: 0.69, 1.14): 0.89
median progression free survival (PFS) (ovarian cancer patients; bevacizumab plus chemotherapy, ovarian cancer patients, chemotherapy alone 3.4 months): 6.8 months
median overall survival (OS) (ovarian cancer patients; bevacizumab plus chemotherapy, chemotherapy alone 13.3 months): 16.6 months
improvement in median OS (ovarian cancer patients; [1]): 9.2 month
improvement in median PFS (ovarian cancer patients; [1]): 5.7 month
HR, PFS (ovarian cancer patients; subset that received paclitaxel with the antibody, 95 percent CI: 0.31, 0.72): 0.47
HR, OS (ovarian cancer patients; subset that received paclitaxel with the antibody, 95 percent CI: 0.41, 1.01): 0.64
median PFS (ovarian cancer patients; subset that received paclitaxel with the antibody, versus 3.9 months): 9.6 months
median OS (ovarian cancer patients; subset that received paclitaxel with the antibody, versus 13.2 months): 22.4 months
objective response rate (ovarian cancer patients; subset that received paclitaxel with the antibody, versus 30 percent): 53%
